From PubChem BioAssay AID1963858 (Molecular Pharmacology Branch, DTP, NCI, 2024)

System: HOP-62 multicell spheroids with HUVEC/MSC, viability
Experiment: Anticancer human tumor HOP-62 cell line growth inhibition [KRAS2];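 also: viability read after a week of compound exposure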;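 as to viability, T/C: 100% = DMSO vehicle-treated spheroids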
Conditions: for IC50: curve of first compound; for viability, T/C: stronger effect = lower value
In short: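 Combination screen of spheroid viability in tumor-cell co-cultures with endothelial (HUVEC) and mesenchymal stem cell stroma. Each agent was tested in half-log dilutions, topping at clinical Cmax or at 10 microM without a known Cmax.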

[1] = second compound 0.1 µM, first compound 0.0316 µM
[2] = second compound 0.1 µM, first compound 0.1 µM
[3] = second compound 0.1 µM, first compound 0.316 µM
[4] = second compound 0.1 µM, first compound 1 µM
[5] = second compound 0.1 µM, first compound 3.16 µM
[6] = second compound 0.316 µM, first compound 0.0316 µM
[7] = second compound 0.316 µM, first compound 0.1 µM
[8] = second compound 0.316 µM, first compound 0.316 µM
[9] = second compound 0.316 µM, first compound 1 µM
[10] = second compound 0.316 µM, first compound 3.16 µM
[11] = second compound 1 µM, first compound 0.0316 µM
[12] = second compound 1 µM, first compound 0.1 µM
[13] = second compound 1 µM, first compound 0.316 µM
[14] = second compound 1 µM, first compound 1 µM
[15] = second compound 1 µM, first compound 3.16 µM
[16] = second compound 3.16 µM, first compound 0.0316 µM
[17] = second compound 3.16 µM, first compound 0.1 µM
[18] = second compound 3.16 µM, first compound 0.316 µM
[19] = second compound 3.16 µM, first compound 1 µM
[20] = second compound 3.16 µM, first compound 3.16 µM
[21] = second compound 10 µM, first compound 0.0316 µM
[22] = second compound 10 µM, first compound 0.1 µM
[23] = second compound 10 µM, first compound 0.316 µM
[24] = second compound 10 µM, first compound 1 µM
[25] = second compound 10 µM, first compound 3.16 µM
[26] = second compound 0.1 µM, first compound 10 µM
[27] = second compound 0.316 µM, first compound 10 µM
[28] = second compound 1 µM, first compound 10 µM
[29] = second compound 3.16 µM, first compound 10 µM
[30] = second compound 10 µM, first compound 10 µM

SMILES	IC50 (second compound 0.1 µM) [nM]	IC50 (second compound 0.316 µM) [nM]	IC50 (second compound 1 µM) [nM]	IC50 (second compound 3.16 µM) [nM]	viability, T/C [1] [%]	viability, T/C [2] [%]	viability, T/C [3] [%]	viability, T/C [4] [%]	viability, T/C [5] [%]	viability, T/C [6] [%]	viability, T/C [7] [%]	viability, T/C [8] [%]	viability, T/C [9] [%]	viability, T/C [10] [%]	viability, T/C [11] [%]	viability, T/C [12] [%]	viability, T/C [13] [%]	viability, T/C [14] [%]	viability, T/C [15] [%]	viability, T/C [16] [%]	further results
CC(=O)OC12COC1CC(O)C1(C)C(=O)C(O)C3=C(C)C(OC(=O)C(O)C(NC(=O)OC(C)(C)C)c4ccccc4)CC(O)(C(OC(=O)c4ccccc4)C21)C3(C)C (stereo not given) + CNCc1ccccc1-c1csc(C(C)Nc2nc(C)nc3cc(OC)c(OC)cc23)c1	< 10	< 10	< 10	< 10	35.2	38.1	35	34.9	45.7	33	38.1	31.7	29.2	37	28.4	28	33.6	39.8	42.4	0.11	IC50 (second compound 10 µM): < 10 nM; viability, T/C (second compound 0.1 µM, first compound 0.01 µM): 36.4%; viability, T/C (second compound 0.316 µM, first compound 0.01 µM): 34.3%; viability, T/C (second compound 1 µM, first compound 0.01 µM): 34%; viability, T/C (second compound 3.16 µM, first compound 0.01 µM): 26.4%; viability, T/C [17]: 0.07%; viability, T/C [18]: 0.09%; viability, T/C [19]: 0.11%; viability, T/C [20]: 34.9%; viability, T/C (second compound 10 µM, first compound 0.01 µM): 3.3%; viability, T/C [21]: 1.3%; viability, T/C [22]: 0.1%; viability, T/C [23]: 0.14%; viability, T/C [24]: 30.4%; viability, T/C [25]: 2.73%
Cn1nccc1Nc1nccc(-c2cc3c(s2)C(C)(C)N(CCN2CCOCC2)C3=O)n1 + COc1cc2nc(C)nc(NC(C)c3cc(N)cc(C(F)(F)F)c3)c2cc1OC1CCOC1	795	801	769	389	107	103	76.2	44.8	25.2	106	98.6	77.9	45	20.6	101	88.3	67.9	48	22.1	93.8	IC50 (second compound 10 µM): 189 nM; viability, T/C [26]: 25.8%; viability, T/C [27]: 22.8%; viability, T/C [28]: 20.9%; viability, T/C [17]: 78.7%; viability, T/C [18]: 54.2%; viability, T/C [19]: 33.1%; viability, T/C [20]: 22%; viability, T/C [29]: 22.3%; viability, T/C [21]: 66.7%; viability, T/C [22]: 60.4%; viability, T/C [23]: 41.6%; viability, T/C [24]: 28.2%; viability, T/C [25]: 25.1%; viability, T/C [30]: 24%
CC1(C)CCC(CN2CCN(c3ccc(C(=O)NS(=O)(=O)c4ccc(NCC5CCOCC5)c([N+](=O)[O-])c4)c(Oc4cnc5[nH]ccc5c4)c3)CC2)=C(c2ccc(Cl)cc2)C1 + C=CC(=O)N1CCN(c2nc(OCC3CCCN3C)nc3c2CCN(c2cccc4cccc(C)c24)C3)CC1CC#N	< 31.6	< 31.6	< 31.6	< 31.6	48.9	41.4	37.8	36.4	37.2	36.6	41.6	26.4	38.2	26.9	24.6	22.6	27.1	22.9	24.1	1.22	IC50 (second compound 0.0316 µM): 1510 nM; viability, T/C (second compound 0.0316 µM, first compound 0.0316 µM): 58.8%; viability, T/C (second compound 0.0316 µM, first compound 0.1 µM): 54.1%; viability, T/C (second compound 0.0316 µM, first compound 0.316 µM): 54.9%; viability, T/C (second compound 0.0316 µM, first compound 1 µM): 56%; viability, T/C (second compound 0.0316 µM, first compound 3.16 µM): 39.5%; viability, T/C (second compound 0.0316 µM, first compound 10 µM): 22.7%; viability, T/C [26]: 21.6%; viability, T/C [27]: 16%; viability, T/C [28]: 5.4%; viability, T/C [17]: 0.15%; viability, T/C [18]: 0.14%; viability, T/C [19]: 0.16%; viability, T/C [20]: 0.14%; viability, T/C [29]: 0.18%
CCNC(=O)CC1N=C(c2ccc(Cl)cc2)c2cc(OC)ccc2-n2c(C)nnc21 (stereo not given) + CNCc1ccccc1-c1csc(C(C)Nc2nc(C)nc3cc(OC)c(OC)cc23)c1	438	245	136	< 31.6	103	74.4	52.3	43.1	37.3	92.3	72	44.7	30.9	33.6	86	54.3	38.2	29.7	28.1	0.15	IC50 (second compound 10 µM): < 31.6 nM; viability, T/C [26]: 35.1%; viability, T/C [27]: 32.6%; viability, T/C [28]: 28.6%; viability, T/C [17]: 0.21%; viability, T/C [18]: 0.07%; viability, T/C [19]: 0.06%; viability, T/C [20]: 0.06%; viability, T/C [29]: 0.13%; viability, T/C [21]: 0.1%; viability, T/C [22]: 0.09%; viability, T/C [23]: 0.1%; viability, T/C [24]: 0.09%; viability, T/C [25]: 0.23%; viability, T/C [30]: 0.17%
